# Laboratory results: patent US9603889B2, “IAP antagonists” (BRISTOL-MYERS SQUIBB COMPANY, priority 2012, dated 2017)
# Molecular target: XIAP BIR3 (N-His-Tb-BIR3(241-356, XIAP)) (Homo sapiens (Human), UniProt P98170)
# Type: binding
# Conditions: 130 nM N-His-Tb-BIR3(241-356, XIAP), 1.4 nM fluoresceinated modified SMAC peptide, 60 minutes room temperature; read-out: XIAP BIR3 FPA IC50
# XIAP BIR3 (N-His-Tb-BIR3(241-356, XIAP)), sequence (P98170 241-356): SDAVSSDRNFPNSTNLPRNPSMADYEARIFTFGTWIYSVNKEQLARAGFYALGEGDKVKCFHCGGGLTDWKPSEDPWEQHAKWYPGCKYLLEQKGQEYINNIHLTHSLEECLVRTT
row,SMILES,IC50 [nM]
1,"CN[C@@H](C)C(=O)N[C@H](C(=O)N1CC(NC(=O)c2ccc(CN(C(=O)[C@@H]3Cc4ccccc4CN3C(=O)[C@@H](NC(=O)[C@H](C)NC)C(C)(C)C)C(C)c3ccccc3Cl)cc2)C[C@H]1C(=O)NC1CCCc2ccccc21)C(C)(C)C (stereo partly drawn) [Example 26, (3S)-N-(1-(2-Chlorophenyl)ethyl)-2-((S)-3,3-dimethyl-2-((S)-2-(methylamino)propanamido)butanoyl)-N-(4-(((3S,5S)-1-((S)-3,3-dimethyl-2-((S)-2-(methylamino)propanamido)butanoyl)-5-(((R)-1,2,3,4-tetrahydro-naphthalen-1-yl)carbamoyl)pyrrolidin-3-yl)carbamoyl)benzyl)-1,2,3,4-tetra-hydroisoquinoline-3-carboxamide]",190
2,"CN[C@@H](C)C(=O)N[C@H](C(=O)N1CCc2ccccc2[C@H]1C(=O)N(Cc1ccc(C(=O)N[C@H]2C[C@@H](C(=O)N[C@@H]3CCCc4ccccc43)N(C(=O)[C@@H](NC(=O)[C@H](C)NC)C(C)(C)C)C2)cc1)[C@H](C)Cc1ccccc1F)C(C)(C)C [Example 27, (S)-2-((S)-3,3-Dimethyl-2-((S)-2-(methylamino)propanamido)butanoyl)-N-(4-(((3S,5S)-1-((S)-3,3-dimethyl-2-((S)-2-(methylamino)propanamido)butanoyl)-5-(((R)-1,2,3,4-tetrahydro-naphthalen-1-yl)carbamoyl)pyrrolidin-3-yl)carbamoyl)benzyl)-N-((R)-1-(2-fluorophenyl)propan-2-yl)-1,2,3,4-tetrahydro-isoquinoline-1-carboxamide]",90
3,"CN[C@@H](C)C(=O)N[C@H](C(=O)N1C[C@@H](NC(=O)c2ccc(CN(C(=O)[C@@H]3Cc4ccccc4CN3C(=O)[C@@H](NC(=O)[C@H](C)NC)C(C)(C)C)[C@H](C)c3ccccc3C)cc2)C[C@H]1C(=O)N[C@@H]1CCCc2ccccc21)C(C)(C)C [Example 28, (S)-2-((S)-3,3-Dimethyl-2-((S)-2-(methylamino)propanamido)butanoyl)-N-(4-(((3S,5S)-1-((S)-3,3-dimethyl-2-((S)-2-(methylamino)propanamido)butanoyl)-5-(((R)-1,2,3,4-tetra-hydronaphthalen-1-yl)carbamoyl)pyrrolidin-3-yl)carbamoyl)benzyl)-N-((R)-1-(o-tolyl)ethyl)-1,2,3,4-tetrahydro-isoquinoline-3-carboxamide]",160
4,"CCOc1ccccc1[C@@H](C)N(Cc1ccc(C(=O)N[C@H]2C[C@@H](C(=O)N[C@@H]3CCCc4ccccc43)N(C(=O)[C@@H](NC(=O)[C@H](C)NC)C(C)(C)C)C2)cc1)C(=O)[C@@H]1Cc2ccccc2CN1C(=O)[C@@H](NC(=O)[C@H](C)NC)C(C)(C)C [Example 29, (S)-2-((S)-3,3-Dimethyl-2-((S)-2-(methylamino)propanamido)butanoyl)-N-(4-(((3S,5S)-1-((S)-3,3-dimethyl-2-((S)-2-(methyl-amino)propanamido)butanoyl)-5-(((R)-1,2,3,4-tetra-hydronaphthalen-1-yl)carbamoyl)pyrrolidin-3-yl)carbamoyl)benzyl)-N-((R)-1-(2-ethoxyphenyl)ethyl)-1,2,3,4-tetrahydro-isoquinoline-3-carboxamide]",160
5,"CN[C@@H](C)C(=O)N[C@H](C(=O)N1Cc2ccccc2C[C@H]1CN(C(=O)c1ccc(C(=O)N[C@H]2C[C@@H](C(=O)N[C@@H]3CCCc4ccccc43)N(C(=O)[C@@H](NC(=O)[C@H](C)NC)C(C)(C)C)C2)cc1)[C@H](C)Cc1ccc2ccccc2c1)C(C)(C)C [Example 30, N^1-(((S)-2-((S)-3,3-Dimethyl-2-((S)-2-(methylamino)propanamido)butanoyl)-1,2,3,4-tetrahydro-isoquinolin-3-yl)methyl)-N^4-((3S,5S)-1-((S)-3,3-dimethyl-2-((S)-2-(methylamino)propanamido)butanoyl)-5-(((R)-1,2,3,4-tetrahydro-naphthalen-1-yl)carbamoyl)pyrrolidin-3-yl)-N^1-((R)-1-(naphthalen-2-yl)propan-2-yl) terephthalamide]",270
6,"CN[C@@H](C)C(=O)N[C@H](C(=O)N1Cc2ccccc2C[C@H]1CN(C(=O)c1ccc(C(=O)N[C@H]2C[C@@H](C(=O)N[C@@H]3CCCc4ccccc43)N(C(=O)[C@@H](NC(=O)[C@H](C)NC)C(C)(C)C)C2)cc1)[C@H](C)c1ccc2ccccc2c1)C(C)(C)C [Example 31, N^1-(((S)-2-((S)-3,3-Dimethyl-2-((S)-2-(methylamino)propanamido)butanoyl)-1,2,3,4-tetrahydro-isoquinolin-3-yl)methyl)-N^4-((3S,5S)-1-((S)-3,3-dimethyl-2-((S)-2-(methyl-amino)propanamido)butanoyl)-5-(((R)-1,2,3,4-tetrahydro-naphthalen-1-yl)carbamoyl)pyrrolidin-3-yl)-N^1-((R)-1-(naphthalen-2-yl)ethyl) terephthalamide]",250
7,"CN[C@@H](C)C(=O)N[C@H](C(=O)N1Cc2ccccc2C[C@H]1CN(CCc1cccc2ccccc12)C(=O)c1ccc(C(=O)N[C@H]2C[C@@H](C(=O)N[C@@H]3CCCc4ccccc43)N(C(=O)[C@@H](NC(=O)[C@H](C)NC)C(C)(C)C)C2)cc1)C(C)(C)C [Example 33, N^1-(((S)-2-((S)-3,3-Dimethyl-2-((S)-2-(methylamino)propanamido)butanoyl)-1,2,3,4-tetrahydro-isoquinolin-3-yl)methyl)-N^4-((3S,5S)-1-((S)-3,3-dimethyl-2-((S)-2-(methylamino)propanamido)butanoyl)-5-(((R)-1,2,3,4-tetrahydro-naphthalen-1-yl)carbamoyl)pyrrolidin-3-yl)-N^1-(2-(naphthalen-1-yl)ethyl) terephthalamide]",120
8,"CN[C@@H](C)C(=O)N[C@H](C(=O)N1Cc2ccccc2C[C@H]1CN(Cc1cccc2ccccc12)C(=O)c1ccc(C(=O)N[C@H]2C[C@@H](C(=O)N[C@@H]3CCCc4ccccc43)N(C(=O)[C@@H](NC(=O)[C@H](C)NC)C(C)(C)C)C2)cc1)C(C)(C)C [Example 34, N^1-(((S)-2-((S)-3,3-Dimethyl-2-((S)-2-(methylamino)propanamido)butanoyl)-1,2,3,4-tetrahydro-isoquinolin-3-yl)methyl)-N^4-((3S,5S)-1-((S)-3,3-dimethyl-2-((S)-2-(methylamino)propanamido)butanoyl)-5-(((R)-1,2,3,4-tetrahydro-naphthalen-1-yl)carbamoyl)pyrrolidin-3-yl)-N^1-(naphthalen-1-ylmethyl) terephthalamide]",160
9,"CN[C@@H](C)C(=O)N[C@H](C(=O)N1Cc2ccccc2C[C@H]1CN(Cc1cccc(C)c1C)C(=O)c1ccc(C(=O)Nc2ccc3c(c2)CN(C(=O)[C@@H](NC(=O)[C@H](C)NC)C(C)(C)C)[C@H](C(=O)N[C@@H]2CCCc4ccccc42)C3)cc1)C(C)(C)C [Example 35, N^1-(((S)-2-((S)-3,3-Dimethyl-2-((S)-2-(methylamino)propanamido)butanoyl)-1,2,3,4-tetra-hydroisoquinolin-3-yl)methyl)-N^4-((S)-2-((S)-3,3-dimethyl-2-((S)-2-(methylamino)propanamido)butanoyl)-3-(((R)-1,2,3,4-tetrahydro-naphthalen-1-yl)carbamoyl)-1,2,3,4-tetra-hydroisoquinolin-7-yl)-N^1-(2,3-dimethylbenzyl) terephthalamide]",230
